# Laboratory results: patent publication US4902700A, “Thiazole derivative and leukotriene antagonist containing the same as the effective ingredients” (Mitsubishi Kasei Corporation, priority 1985, dated 1990)
# Counter-ions that a name gives are not always drawn.
# Tested on: SRS
# Assay: SRS antagonistic action in vitro (isolated guinea pig ileum shrinkage)
# Details: conc. attenuating control shrinkage to 50% (IC50), Tables 2-1 to 2-4, head prints no unit, read-out: Anti-SRS action [minimum effective conc.]
# Experimental: The ileum end portion of a male Hartley-strain guinea pig weighing 200-450 g was extirpated and after washing its lumen, the ileum was mounted within 5 ml of a tissue bath containing a Tylord solution comprising the following components. […] For removing shrinkage with hystamine and acetylcholine, 10^-7 g/ml of mepylamin and 5×10^-8 g/ml of atropin were added to the above buffer. […] The ileum was loaded passively with 0.5 g of tension and the ileum shrinkage reaction to SRS extracted from guinea pig lung was obtained. The persistent shrinkage height by one unit of SRS (corresponding to 5 ng of hystamine) was used as control.
row,IC50,Compound
1,1e-07 M,CCCc1nc(/C=C/c2cccc(NC(=O)/C=C\C(=O)O)c2)sc1CC [compound 332]
2,5e-09 M,Cc1ccc2sc(/C=C/c3cccc(NC(=O)c4ccccc4C(=O)O)c3)nc2c1 [compound 231]
3,5e-08 M,CCCCC(CC(=O)Nc1cccc(/C=C/c2nc3ccccc3s2)c1)C(=O)O (stereo not shown) [compound 227]
4,2e-09 M,CC(C)c1csc(/C=C/c2cccc(NC(=O)CC(C(=O)O)c3ccccc3)c2)n1 (stereo not shown) [compound 307]
5,1e-07 M,CCCCCCCc1csc(/C=C/c2cccc(NC(=O)c3ccccc3C(=O)O)c2)n1 [compound 291]
6,2e-05 M,CCCCCCc1csc(/C=C/c2cccc(NC(=O)c3ccccc3C(=O)O)c2)n1 [compound 287]
7,2e-07 M,O=C(O)/C=C/C(=O)Nc1cccc(/C=C/c2nc3ccccc3s2)c1 [compound 167]
8,1e-07 M,O=C(O)C(=O)Nc1cccc(/C=C/c2nc3ccccc3s2)c1 [compound 168]
9,5e-08 M,Cc1cc(C(=O)O)c(C(=O)Nc2cccc(/C=C/c3nc(-c4ccccc4)cs3)c2)cc1C [compound 253]
10,5e-07 M,COC(=O)CCC(=O)Nc1cccc(/C=C/c2nc3ccccc3s2)c1 [compound 192]
11,5e-09 M,CCc1nc(/C=C/c2cccc(NC(=O)c3cc(C)c(C)cc3C(=O)O)c2)sc1C [compound 328]
12,2e-08 M,O=C(O)/C=C\C(=O)Nc1cccc(/C=C/c2nc(-c3ccccc3)cs2)c1 [compound 34]
13,5e-05 M,CC(C)(C)c1csc(/C=C/c2cccc(NC(=O)CCCC(=O)O)c2)n1 [compound 298]
14,5e-07 M,Cc1csc(/C=C/c2cccc(NC(=O)/C=C\C(=O)O)c2)n1 [compound 54]

row,Compound,IC50
1,O=C(O)c1ccccc1C(=O)Nc1cccc(/C=C/c2nc3ccccc3s2)c1 [compound 2],5e-09 M
2,O=C(O)[C@H]1CCCC[C@H]1C(=O)Nc1cccc(/C=C/c2nc3ccccc3s2)c1 (relative stereo) [compound 3],5e-08 M

# Same assay, conditions: conc. attenuating control shrinkage to 50% (IC50), Tables 2-6 to 2-11 and Table 3, read-out: Anti-SRS action [minimum effective conc. (M)]
row,IC50,Compound
1,2e-07 M,"CCOC(=O)CCCNc1cccc(/C=C/c2nc3ccccc3s2)c1 [compound 199, 2-[trans-3-(3-ethoxycarbonylpropyl)aminostyryl]benzothiazole]"
2,2e-07 M,O=C(O)CCCCNc1cccc(/C=C/c2nc3ccccc3s2)c1 [compound 398]
3,1e-05 M,O=C(O)CCCCCc1cccc(/C=C/c2nc3ccccc3s2)c1 [compound 411]
4,1e-08 M,O=C(CC1(C(=O)O)CCCCC1)Nc1cccc(CCc2nc3ccccc3s2)c1 [compound 358]
5,1e-05 M,O=C(O)/C=C\C(=O)Nc1cccc(COCc2nc3ccccc3s2)c1 [compound 369]
6,5e-07 M,O=C(O)CCCNc1cccc(CCc2nc3ccccc3s2)c1 [compound 376]
7,2e-07 M,Cc1nc(C=Cc2cccc(NCCCC(=O)O)c2)sc1C [compound 377]
8,2e-07 M,O=C(O)/C=C\C(=O)Nc1cccc(NCc2nc3ccccc3s2)c1 [compound 150]
9,1e-06 M,"O=C(CCCO)Nc1cccc(/C=C/c2nc3ccccc3s2)c1 [compound 422, 2-[trans-3-(4-hydroxybutanoylamino)styryl]benzothiazole]"
10,1e-08 M,CCc1csc(C=Cc2cccc(NCCCC(=O)O)c2)n1 [compound 387]
11,1e-06 M,"CC(C)CCOC(=O)/C=C\C(=O)Nc1cccc(/C=C/c2nc3ccccc3s2)c1 [compound 189, 2-[trans-3-(cis-3-isoamyloxycarbonylpropenamide)styryl]benzothiazole]"
12,1e-07 M,CCCCc1csc(C=Cc2cccc(NCCCC(=O)O)c2)n1 [compound 389]
13,1e-07 M,O=C(O)/C=C\C(=O)Nc1cccc(OCc2nc3ccccc3s2)c1 [compound 368]
14,5e-07 M,"C(=C\c1nc2ccccc2s1)/c1cccc(NCCCc2nnn[nH]2)c1 [compound 424, 2-[trans-3-(3-(5-tetrazolyl)propylamino)styryl]benzothiazole]"

row,Compound,IC50
1,"O=C(O)/C=C\C(=O)Nc1cccc(/C=C/c2nc3ccccc3s2)c1 [compound 213, 2-[trans-3-(cis-3-carboxypropenamide)styryl]benzothiazole sodium salt]",5e-08 M
2,"OCCCCOc1cccc(/C=C/c2nc3ccccc3s2)c1 [compound 423, 2-[trans-3-(4-hydroxybutoxy)styryl]benzothiazole]",1e-05 M
3,"O=C(O)CCNc1cccc(/C=C/c2nc3ccccc3s2)c1 [compound 426, 2-[trans-3-(2-carboxyethylamino)styryl]benzothiazole sodium salt]",2e-07 M
4,"O=C(O)[C@H]1CCCC[C@H]1C(=O)Nc1cccc(/C=C/c2nc3ccccc3s2)c1 (relative stereo) [compound 414, 2-[trans-3-(cis-2-carboxycyclohexanoyl)aminostyryl]benzothiazole N-methyl-D-glucamine salt]",1e-06 M

# Tested on: not listed separately
# Assay: Acute toxicity test, oral
# Details: mouse, in vivo, male ddy mice, 1% tragacanth suspension, 7 days
# Experimental: With 4 to 5 ddy-strain male mice of 6 weeks old as one group, the compound of the present invention was orally administered as a suspension in 1% tragacanth solution, and observation was conducted for 7 days and the number of dead mice was examined to obtain the results shown in Table 5.
row,Compound,LD50 at 168 h
1,CC(C)c1csc(/C=C/c2cccc(NC(=O)CCCC(=O)O)c2)n1 [compound 303],2000 mg/kg
2,O=C(O)c1ccccc1C(=O)Nc1cccc(/C=C/c2nc3ccccc3s2)c1 [compound 2],> 3000 mg/kg
3,CC(C)c1csc(/C=C/c2cccc(NC(=O)c3ccccc3C(=O)O)c2)n1 [compound 300],1000 to 2000 mg/kg
4,"O=C(O)/C=C\C(=O)Nc1cccc(/C=C/c2nc3ccccc3s2)c1 [compound 213, 2-[trans-3-(cis-3-carboxypropenamide)styryl]benzothiazole sodium salt]",> 3000 mg/kg
5,Cc1ccc2sc(/C=C/c3cccc(NC(=O)[C@@H]4CCCC[C@@H]4C(=O)O)c3)nc2c1 (relative stereo) [compound 232],3000 mg/kg
6,O=C(O)[C@H]1CCCC[C@H]1C(=O)Nc1cccc(/C=C/c2nc3ccccc3s2)c1 (relative stereo) [compound 216],> 3000 mg/kg
7,O=C([O-])CCCNc1cccc(/C=C/c2nc3ccccc3s2)c1.[Na+],2000 to 3000 mg/kg
8,CCc1nc(C=Cc2cccc(NCCCC(=O)O)c2)sc1C [compound 382],1930 mg/kg
9,O=C(O)c1ccccc1C(=O)Nc1cccc(/C=C/c2nc(-c3ccccc3)cs2)c1 [compound 247],> 3000 mg/kg
10,O=C(O)[C@H]1CC=CC[C@H]1C(=O)Nc1cccc(/C=C/c2nc(-c3ccccc3)cs2)c1 (relative stereo) [compound 249],1000 to 2000 mg/kg
11,Cc1nc(/C=C/c2cccc(NC(=O)c3ccccc3C(=O)O)c2)sc1C [compound 314],2000 to 3000 mg/kg
12,Cc1nc(/C=C/c2cccc(NC(=O)[C@H]3CC=CC[C@H]3C(=O)O)c2)sc1C (relative stereo) [compound 317],1030 mg/kg
13,O=C(O)[C@@H]1CCCC[C@H]1C(=O)Nc1cccc(/C=C/c2nc3ccccc3s2)c1 (relative stereo) [compound 418],< 3000 mg/kg
14,O=C(O)/C=C\C(=O)Nc1cccc(CCc2nc3ccccc3s2)c1 [compound 353],3310 mg/kg
15,CCc1nc(/C=C/c2cccc(NC(=O)[C@H]3CCCC[C@H]3C(=O)O)c2)sc1C (relative stereo) [compound 324],1380 mg/kg
16,CCCCCc1csc(/C=C/c2cccc(NC(=O)c3ccccc3C(=O)O)c2)n1 [compound 281],> 3000 mg/kg
17,O=C(Nc1cccc(CCc2nc3ccccc3s2)c1)[C@H]1CCCC[C@H]1C(=O)O (relative stereo) [compound 355],1930 mg/kg
18,O=C(O)[C@H]1CCCC[C@H]1C(=O)Nc1cccc(/C=C/c2nc3cc(Cl)ccc3s2)c1 (relative stereo) [compound 26],> 3000 mg/kg
19,CCc1nc(/C=C/c2cccc(NC(=O)CCCC(=O)O)c2)sc1C [compound 326],< 3000 mg/kg
20,O=C(O)[C@H]1CCCC[C@H]1C(=O)Nc1cccc(/C=C/c2nc(-c3ccccc3)cs2)c1 (relative stereo) [compound 248],> 3000 mg/kg
21,CCc1nc(/C=C/c2cccc(NC(=O)CCC(=O)O)c2)sc1C [compound 325],2000 mg/kg
22,Cc1nc(/C=C/c2cccc(NC(=O)/C=C\C(=O)O)c2)sc1C [compound 313],1560 mg/kg
23,Cc1nc(/C=C/c2cccc(NC(=O)[C@H]3CCCC[C@H]3C(=O)O)c2)sc1C (relative stereo) [compound 315],1000 to 2000 mg/kg

# Tested on: LTD4
# Assay: LTD4 antagonistic action in vivo (airway resistance increase, Konzett-Roessler)
# Set-up: species or system guinea pig
# Details: Cavia porcellus, read-out: Airway resistance increase inhibition
row,Compound,inhibition in vivo at 3 mg/kg
1,O=C([O-])CCCNc1cccc(/C=C/c2nc3ccccc3s2)c1.[Na+] [sodium salt],55%

# Same assay, conditions: Cavia porcellus; intraduodenal, 3 mg/kg; LTD4 0.1-1.0 μg/kg i.v.; read-out: Airway resistance increase inhibition
row,Compound,inhibition in vivo at 3 mg/kg
1,CCCCC(CC(=O)Nc1cccc(/C=C/c2nc3ccccc3s2)c1)C(=O)O (stereo not shown) [compound 227],71%
2,O=C(CC1(C(=O)O)CCCCC1)Nc1cccc(/C=C/c2nc3ccccc3s2)c1 [compound 223],87%

# Same assay, conditions: Cavia porcellus; intraduodenal, 10 mg/kg; LTD4 0.1-1.0 μg/kg i.v.
row,Compound,inhibition in vivo at 10 mg/kg
1,CC(C)(C)c1csc(/C=C/c2cccc(NC(=O)CCC(=O)O)c2)n1 [compound 297],62%
2,CCCc1csc(/C=C/c2cccc(NC(=O)c3ccccc3C(=O)O)c2)n1 [compound 272],37%

# Same assay, conditions: Cavia porcellus; intraduodenal, 30 mg/kg; LTD4 0.1-1.0 μg/kg i.v.
row,Compound,inhibition in vivo at 30 mg/kg
1,"O=C(O)/C=C\C(=O)Nc1cccc(/C=C/c2nc3ccccc3s2)c1 [compound 213, 2-[trans-3-(cis-3-carboxypropenamide)styryl]benzothiazole sodium salt]",51%
2,O=C(O)/C=C\C(=O)Nc1cccc(CCc2nc3ccccc3s2)c1 [compound 353],79%
